In ChEMBL document CHEMBL3774360, “Potent multitarget FAAH-COX inhibitors: Design and structure-activity relationship studies” (Eur J Med Chem, 2016):

Tests used:
[1] = target: Tyrosine-protein phosphatase non-receptor type 1 (Homo sapiens) (UniProt P18031); assay: Binding affinity to PTPN1 (unknown origin) at 10 uM
Homo sapiens [2] = species: Homo sapiens; assay: Binding affinity to neuropeptide Y receptor (unknown origin) at 10 uM by radioligand binding assay
[3] = target: Sodium-dependent noradrenaline transporter (Homo sapiens) (UniProt P23975); assay: Binding affinity to human norepinephrine transporter at 10 uM by radioligand binding assay
[4] = target: Thromboxane A2 receptor (Homo sapiens) (UniProt P21731); assay: Antagonist activity against human TP receptor at 10 uM; design: scale not given: the % may be the effect or the level left
[5] = target: Prostaglandin E2 receptor EP3 subtype (Homo sapiens) (UniProt P43115); assay: Binding affinity to human EP3 receptor at 10 uM by radioligand binding assay
[6] = target: D(2) dopamine receptor (Homo sapiens) (UniProt P14416); assay: Binding affinity to human dopamine D2S receptor at 10 uM by radioligand binding assay
[7] = target: Polyunsaturated fatty acid lipoxygenase ALOX15B (Homo sapiens) (UniProt O15296); assay: Binding affinity to recombinant human 15-Lipoxygenase-2 at 10 uM
[8] = target: Sodium/potassium-transporting ATPase (Homo sapiens) (UniProt P05023+P14415+P05026+P50993+P54709+P13637+Q13733+P54710); assay: Binding affinity to sodium/potassium-transporting ATPase (unknown origin) at 10 uM; assay type: protein-complex assay
[9] = target: Nitric oxide synthase, inducible (Homo sapiens) (UniProt P35228); assay: Binding affinity to inducible NOS (unknown origin) at 10 uM
Homo sapiens [10] = species: Homo sapiens; assay: Binding affinity to AMPA receptor (unknown origin) at 10 uM by radioligand binding assay
[11] = target: Polyunsaturated fatty acid 5-lipoxygenase (Homo sapiens) (UniProt P09917); assay: Binding affinity to human 5-lipoxygenase at 10 uM
Homo sapiens [12] = species: Homo sapiens; assay: Activation of human guanylyl cyclase at 10 uM
Homo sapiens [13] = species: Homo sapiens; assay: Binding affinity to human muscarinic receptor at 10 uM by radioligand binding assay
[14] = target: Vasopressin V1a receptor (Homo sapiens) (UniProt P37288); assay: Binding affinity to human V1a receptor at 10 uM by radioligand binding assay
Homo sapiens [15] = species: Homo sapiens; assay: Binding affinity to L-type calcium channel diltiazem binding site (unknown origin) at 10 uM by radioligand binding assay
[16] = target: Thyrotropin-releasing hormone receptor (Homo sapiens) (UniProt P34981); assay: Binding affinity to human TRH1 receptor at 10 uM by radioligand binding assay
[17] = target: Prostacyclin receptor (Homo sapiens) (UniProt P43119); assay: Binding affinity to human IP receptor at 10 uM by radioligand binding assay
[18] = target: Glutamate [NMDA] receptor (Homo sapiens) (UniProt Q05586+Q12879+Q13224+O15399+O60391+Q14957+Q8TCU5); assay: Binding affinity to NMDA receptor (unknown origin) at 10 uM by radioligand binding assay
[19] = target: Centromere-associated protein E (Homo sapiens) (UniProt Q02224); assay: Binding affinity to human CENP-E at 10 uM
Chain of Centromere-associated protein E (Homo sapiens) (Q02224 whole entry): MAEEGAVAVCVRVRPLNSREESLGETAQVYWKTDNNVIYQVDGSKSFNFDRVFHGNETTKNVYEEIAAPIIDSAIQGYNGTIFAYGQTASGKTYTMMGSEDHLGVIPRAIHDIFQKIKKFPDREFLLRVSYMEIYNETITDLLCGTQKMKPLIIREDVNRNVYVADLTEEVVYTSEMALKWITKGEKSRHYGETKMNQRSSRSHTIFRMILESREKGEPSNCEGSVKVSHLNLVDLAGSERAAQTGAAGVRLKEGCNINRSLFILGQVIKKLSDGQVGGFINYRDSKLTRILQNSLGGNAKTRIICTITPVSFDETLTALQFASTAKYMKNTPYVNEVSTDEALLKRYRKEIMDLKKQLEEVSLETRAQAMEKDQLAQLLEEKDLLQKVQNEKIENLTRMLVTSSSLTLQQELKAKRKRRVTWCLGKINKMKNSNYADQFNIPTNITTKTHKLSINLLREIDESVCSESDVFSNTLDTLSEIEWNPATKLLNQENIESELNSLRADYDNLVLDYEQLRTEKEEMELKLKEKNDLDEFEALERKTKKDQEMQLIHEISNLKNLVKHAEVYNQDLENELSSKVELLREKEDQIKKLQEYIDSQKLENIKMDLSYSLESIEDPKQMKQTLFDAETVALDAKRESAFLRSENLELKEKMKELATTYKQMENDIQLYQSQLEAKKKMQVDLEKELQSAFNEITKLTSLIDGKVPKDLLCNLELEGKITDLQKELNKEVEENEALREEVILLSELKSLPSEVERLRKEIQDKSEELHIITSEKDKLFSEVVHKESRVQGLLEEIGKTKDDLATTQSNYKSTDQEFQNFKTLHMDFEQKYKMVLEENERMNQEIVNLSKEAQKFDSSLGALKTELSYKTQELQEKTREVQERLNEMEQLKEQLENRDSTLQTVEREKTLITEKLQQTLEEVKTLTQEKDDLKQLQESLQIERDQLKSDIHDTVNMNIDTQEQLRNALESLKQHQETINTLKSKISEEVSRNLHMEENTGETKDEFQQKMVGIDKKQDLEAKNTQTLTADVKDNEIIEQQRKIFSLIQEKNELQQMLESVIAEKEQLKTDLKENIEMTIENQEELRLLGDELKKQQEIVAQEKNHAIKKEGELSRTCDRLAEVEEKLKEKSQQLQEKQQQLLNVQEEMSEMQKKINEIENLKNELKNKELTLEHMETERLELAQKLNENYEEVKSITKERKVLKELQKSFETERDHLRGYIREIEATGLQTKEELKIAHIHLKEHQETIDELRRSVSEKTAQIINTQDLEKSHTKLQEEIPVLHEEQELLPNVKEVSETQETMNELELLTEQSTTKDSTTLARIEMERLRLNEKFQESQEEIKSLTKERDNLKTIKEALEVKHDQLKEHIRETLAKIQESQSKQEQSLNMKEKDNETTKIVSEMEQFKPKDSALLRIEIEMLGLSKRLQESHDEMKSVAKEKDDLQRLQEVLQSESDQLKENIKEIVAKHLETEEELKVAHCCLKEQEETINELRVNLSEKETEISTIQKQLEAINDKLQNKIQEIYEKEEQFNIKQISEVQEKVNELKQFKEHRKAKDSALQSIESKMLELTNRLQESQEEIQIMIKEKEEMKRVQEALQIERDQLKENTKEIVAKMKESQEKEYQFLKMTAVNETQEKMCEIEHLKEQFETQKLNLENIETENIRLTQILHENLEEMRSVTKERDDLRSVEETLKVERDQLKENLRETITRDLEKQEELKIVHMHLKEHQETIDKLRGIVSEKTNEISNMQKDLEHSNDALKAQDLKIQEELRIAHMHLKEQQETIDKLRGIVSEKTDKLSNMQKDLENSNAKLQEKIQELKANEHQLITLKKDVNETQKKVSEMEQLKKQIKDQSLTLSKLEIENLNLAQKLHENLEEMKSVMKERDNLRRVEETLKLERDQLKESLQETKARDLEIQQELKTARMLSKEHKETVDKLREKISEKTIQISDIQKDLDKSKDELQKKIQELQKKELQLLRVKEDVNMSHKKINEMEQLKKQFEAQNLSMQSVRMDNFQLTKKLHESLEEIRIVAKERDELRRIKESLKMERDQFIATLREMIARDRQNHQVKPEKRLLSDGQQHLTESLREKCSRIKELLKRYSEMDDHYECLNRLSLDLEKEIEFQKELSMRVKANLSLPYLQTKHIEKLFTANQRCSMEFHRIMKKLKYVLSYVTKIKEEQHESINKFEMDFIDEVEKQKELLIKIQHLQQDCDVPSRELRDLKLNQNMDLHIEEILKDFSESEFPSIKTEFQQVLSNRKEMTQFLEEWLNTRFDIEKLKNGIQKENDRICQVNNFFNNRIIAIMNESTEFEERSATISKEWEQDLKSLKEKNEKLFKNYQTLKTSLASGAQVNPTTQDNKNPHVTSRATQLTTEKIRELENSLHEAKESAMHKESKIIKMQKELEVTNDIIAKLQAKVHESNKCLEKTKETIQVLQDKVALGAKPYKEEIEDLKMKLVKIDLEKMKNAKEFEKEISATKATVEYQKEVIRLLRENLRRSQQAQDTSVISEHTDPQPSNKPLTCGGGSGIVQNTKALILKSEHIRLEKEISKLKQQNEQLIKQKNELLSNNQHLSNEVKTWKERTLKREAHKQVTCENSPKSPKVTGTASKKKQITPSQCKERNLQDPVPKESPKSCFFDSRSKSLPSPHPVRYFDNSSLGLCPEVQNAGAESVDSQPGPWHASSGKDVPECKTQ

Homo sapiens [20] = species: Homo sapiens; assay: Binding affinity to kainate receptor (unknown origin) at 10 uM by radioligand binding assay
[21] = target: Prostaglandin E2 receptor EP4 subtype (Homo sapiens) (UniProt P35408); assay: Binding affinity to human EP4 receptor at 10 uM by radioligand binding assay
Homo sapiens [22] = species: Homo sapiens; assay: Binding affinity to central-type benzodiazepine receptor (unknown origin) at 10 uM by radioligand binding assay
[23] = target: cGMP-specific 3',5'-cyclic phosphodiesterase (Homo sapiens) (UniProt O76074); assay: Binding affinity to human PDE5 at 10 uM
[24] = target: Androgen receptor (Homo sapiens) (UniProt P10275); assay: Binding affinity to human androgen receptor at 10 uM by radioligand binding assay
[25] = target: Prostaglandin E2 receptor EP2 subtype (Homo sapiens) (UniProt P43116); assay: Binding affinity to human EP2 receptor at 10 uM by radioligand binding assay
[26] = target: Vasopressin V2 receptor (Homo sapiens) (UniProt P30518); assay: Binding affinity to human V2 receptor at 10 uM by radioligand binding assay
[27] = target: Amine oxidase [flavin-containing] B (Homo sapiens, UniProt P27338); assay: Binding affinity to recombinant human MAO-B at 10 uM
[28] = target: High affinity choline transporter 1 (Homo sapiens) (UniProt Q9GZV3); assay: Binding affinity to human CHT1 transporter at 10 uM by radioligand binding assay
[29] = target: Histamine H3 receptor (Homo sapiens) (UniProt Q9Y5N1); assay: Binding affinity to human histamine H3 receptor at 10 uM by radioligand binding assay
Chain of Histamine H3 receptor (Homo sapiens) (Q9Y5N1 whole entry): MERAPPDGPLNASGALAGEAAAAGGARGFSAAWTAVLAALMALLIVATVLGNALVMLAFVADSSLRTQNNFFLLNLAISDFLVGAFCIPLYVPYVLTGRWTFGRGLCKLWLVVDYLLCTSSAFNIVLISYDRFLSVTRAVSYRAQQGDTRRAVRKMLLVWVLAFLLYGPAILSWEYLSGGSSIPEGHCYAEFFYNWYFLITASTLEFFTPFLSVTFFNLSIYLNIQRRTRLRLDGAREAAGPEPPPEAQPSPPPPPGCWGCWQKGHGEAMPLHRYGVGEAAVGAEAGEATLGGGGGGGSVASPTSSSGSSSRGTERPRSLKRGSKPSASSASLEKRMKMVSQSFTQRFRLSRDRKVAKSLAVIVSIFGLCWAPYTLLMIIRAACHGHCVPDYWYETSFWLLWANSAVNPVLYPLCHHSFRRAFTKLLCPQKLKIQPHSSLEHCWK

[30] = target: Substance-K receptor (Homo sapiens) (UniProt P21452); assay: Binding affinity to human NK2 receptor at 10 uM by radioligand binding assay
Chain of Substance-K receptor (Homo sapiens) (P21452 whole entry): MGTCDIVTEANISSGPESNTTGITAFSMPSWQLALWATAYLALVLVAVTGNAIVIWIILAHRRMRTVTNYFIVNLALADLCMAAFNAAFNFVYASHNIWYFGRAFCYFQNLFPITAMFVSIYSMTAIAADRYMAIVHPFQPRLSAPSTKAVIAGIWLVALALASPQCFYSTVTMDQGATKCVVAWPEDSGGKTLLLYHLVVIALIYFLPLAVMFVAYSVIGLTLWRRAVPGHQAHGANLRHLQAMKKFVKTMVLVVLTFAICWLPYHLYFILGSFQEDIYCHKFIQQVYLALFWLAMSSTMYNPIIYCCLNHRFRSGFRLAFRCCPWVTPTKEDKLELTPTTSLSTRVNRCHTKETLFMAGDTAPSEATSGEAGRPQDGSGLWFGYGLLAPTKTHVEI

[31] = target: Opioid receptors; mu/kappa/delta (Homo sapiens) (UniProt P41145+P41143+P35372); assay: Binding affinity to opioid receptor (unknown origin) at 10 uM by radioligand binding assay
[32] = target: Melanocortin receptor 4 (Homo sapiens) (UniProt P32245); assay: Binding affinity to human melanocortin-4 receptor at 10 uM by radioligand binding assay
[33] = target: Adrenergic receptor alpha-2 (Homo sapiens) (UniProt P08913+P18825+P18089); assay: Binding affinity to alpha-2 adrenergic receptor (unknown origin) at 10 uM by radioligand binding assay
[34] = target: Beta-1 adrenergic receptor (Homo sapiens) (UniProt P08588); assay: Binding affinity to beta-1 adrenergic receptor (unknown origin) at 10 uM by radioligand binding assay
Chain of Beta-1 adrenergic receptor (Homo sapiens) (P08588 whole entry, looked up): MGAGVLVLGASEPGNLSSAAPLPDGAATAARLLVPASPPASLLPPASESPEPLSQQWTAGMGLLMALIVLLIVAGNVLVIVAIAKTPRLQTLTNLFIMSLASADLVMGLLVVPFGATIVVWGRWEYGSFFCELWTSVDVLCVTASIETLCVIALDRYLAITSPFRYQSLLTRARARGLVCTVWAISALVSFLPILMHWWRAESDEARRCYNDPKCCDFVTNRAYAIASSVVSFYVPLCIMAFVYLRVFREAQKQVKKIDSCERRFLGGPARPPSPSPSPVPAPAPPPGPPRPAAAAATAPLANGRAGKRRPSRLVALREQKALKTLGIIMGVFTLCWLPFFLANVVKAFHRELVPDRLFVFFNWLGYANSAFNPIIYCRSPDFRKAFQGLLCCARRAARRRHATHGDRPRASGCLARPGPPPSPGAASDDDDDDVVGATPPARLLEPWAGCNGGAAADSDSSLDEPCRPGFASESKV

[35] = target: Catechol O-methyltransferase (Homo sapiens) (UniProt P21964); assay: Binding affinity to COMT (unknown origin) at 10 uM
Chain of Catechol O-methyltransferase (Homo sapiens) (P21964 whole entry): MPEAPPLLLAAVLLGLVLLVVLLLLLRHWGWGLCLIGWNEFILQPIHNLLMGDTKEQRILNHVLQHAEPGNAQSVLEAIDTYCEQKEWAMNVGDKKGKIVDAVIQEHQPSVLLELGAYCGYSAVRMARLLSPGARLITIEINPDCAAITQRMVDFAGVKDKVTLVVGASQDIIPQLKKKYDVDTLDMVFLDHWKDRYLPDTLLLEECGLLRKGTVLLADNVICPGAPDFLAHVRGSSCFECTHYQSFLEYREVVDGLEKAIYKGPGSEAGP

[36] = target: Corticotropin-releasing factor receptor 1 (Homo sapiens) (UniProt P34998); assay: Binding affinity to human CRF1 receptor at 10 uM by radioligand binding assay
[37] = target: Peroxisome proliferator-activated receptor gamma (Homo sapiens) (UniProt P37231); assay: Binding affinity to human PPAR-gamma receptor at 10 uM by radioligand binding assay
[38] = target: Estrogen receptor (Homo sapiens) (UniProt P03372); assay: Binding affinity to human estrogen receptor at 10 uM by radioligand binding assay
Chain of Estrogen receptor (Homo sapiens) (P03372 whole entry): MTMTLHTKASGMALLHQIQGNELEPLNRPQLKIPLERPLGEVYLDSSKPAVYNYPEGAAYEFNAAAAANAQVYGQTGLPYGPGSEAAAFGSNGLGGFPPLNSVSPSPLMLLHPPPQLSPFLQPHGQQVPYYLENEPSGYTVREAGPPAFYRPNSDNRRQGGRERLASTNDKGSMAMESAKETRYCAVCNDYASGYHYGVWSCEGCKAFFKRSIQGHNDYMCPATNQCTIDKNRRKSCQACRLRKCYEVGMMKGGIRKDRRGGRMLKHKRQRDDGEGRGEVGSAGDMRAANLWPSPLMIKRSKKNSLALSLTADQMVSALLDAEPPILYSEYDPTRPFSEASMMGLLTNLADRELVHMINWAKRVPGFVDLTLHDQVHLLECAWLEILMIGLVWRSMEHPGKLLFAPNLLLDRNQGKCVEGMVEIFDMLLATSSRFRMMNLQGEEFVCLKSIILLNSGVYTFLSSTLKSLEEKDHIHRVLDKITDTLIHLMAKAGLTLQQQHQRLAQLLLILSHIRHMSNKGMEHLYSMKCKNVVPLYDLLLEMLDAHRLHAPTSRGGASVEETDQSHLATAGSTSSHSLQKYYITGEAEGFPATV

Homo sapiens [39] = species: Homo sapiens; assay: Binding affinity to GABA receptor (unknown origin) at 10 uM by radioligand binding assay
[40] = target: Histamine H2 receptor (Homo sapiens) (UniProt P25021); assay: Binding affinity to human histamine H2 receptor at 10 uM by radioligand binding assay
[41] = target: Sodium-dependent dopamine transporter (Homo sapiens) (UniProt Q01959); assay: Binding affinity to human dopamine transporter at 10 uM by radioligand binding assay
Homo sapiens [42] = species: Homo sapiens; assay: Binding affinity to sodium channel site 2 (unknown origin) at 10 uM by radioligand binding assay

CCCCCCNC(=O)Oc1cccc(-c2ccc([C@H](C)C(=O)O)cc2F)c1
Activity [1]: -5.3% | Activity (Homo sapiens [2]): -2.7% | Activity [3]: 7% | Activity [4]: 2.9% | Activity [5]: 10.9% | Activity [6]: -5% | Activity [7]: -6.4% | Activity [8]: 0.9% | Activity [9]: -5.8% | Activity (Homo sapiens [10]): -4.6% | Activity [11]: 3.8% | Activity (Homo sapiens [12]): 6.7% | Activity (Homo sapiens [13]): 5% | Activity [14]: 0.4% | Activity (Homo sapiens [15]): -19.5% | Activity [16]: -14.9% | Activity [17]: 13.7% | Activity [18]: 3.3% | Activity [19]: -3.3% | Activity (Homo sapiens [20]): 17.1% | Activity [21]: 18.7% | Activity (Homo sapiens [22]): -51.5% | Activity [23]: -21.9% | Activity [24]: 3.7% | Activity [25]: 45% | Activity [26]: 4.2% | Activity [27]: -15.4% | Activity [28]: -18.6% | Activity [29]: -9.3% | Activity [30]: -1.6% | Activity [31]: 15.5% | Activity [32]: 0.9% | Activity [33]: -13.6% | Activity [34]: 5.2% | Activity [35]: -4.1% | Activity [36]: 11.9% | Activity [37]: 80.1% | Activity [38]: -10.5% | Activity (Homo sapiens [39]): -9.5% | Activity [40]: -0.4% | Activity [41]: 13.5% | Activity (Homo sapiens [42]): -0.5%
